Positions of bridges follow the written chain, without caps; N, C: chain ends. Non-standard residues stand in square brackets, D forms with d. Residues, ends and D or L forms follow the SMILES beside them. S5 = C=CCCC[C@](C)(N)C(=O)O
Key:
BC3 cells = type: cell-based, human; details: for BC3 cell death, agent individually: TNF-α or ETO alone
Procedure: (§1) Given their profound impact on NF-κB activation, we next assessed whether IKKγ-mimetic peptides could sensitize BC3 cells to TNF-α and ETO and thus stimulate cell death. To investigate this in cellulo, BC3 cells were transduced with the GST-IKKγ peptide vector prior to treatment with TNF-α or ETO, and after 24 h, their viabilities were assessed. As a control, similar trials were conducted but with GST-IKKγDM, which harbors the same peptide containing the F238R D242R IKKγ double mutations previously shown to impair ks-vFLIP binding and consequently NF-κB activation ([27]). […] We also determined whether spIKKγ could have a similar effect. Owing to the presence of the aliphatic linker and overall positive charge (+0.1), we reasoned that spIKKγ was likely to be cell permeable based on studies involving a diverse range of unrelated stapled peptides ([28][–][32]). […] The effects of SPIKKγ were also investigated on BCP-1 cells, an additional PEL cell line.
Lentiviral vectors expressing GST or GST fusion peptides together with green fluorescent protein (GFP), CherryFP, WT vFLIP, or vFLIPA57L (a mutant which fails to bind IKKγ) were produced as previously described ([19]). […] In each case, lentiviral vector doses were used to ensure that over 95% of cells were positive for the relevant fluorescent protein. […]
(§2) The transfected cells, the human B cell lines BC3, BCP-1, and DG75 (a […] negative for KSHV and Epstein-Barr virus [EBV]) were treated with human TNF-α (PeproTech or Alomone Labs), ETO (Sigma), spIKKγ (encompassing IKKγ residues 230 to 248; see Fig. 3 for structure), or combinations of spIKKγ with either TNF-α or ETO. Cell survival was determined after 24 and 48 h by trypan blue staining and counting with a hemocytometer. Cell viability is expressed as a percentage of the number of viable cells per culture at the start of each experiment. […] Significance difference was calculated by two-way analysis of variance (ANOVA) with Fisher's least significant difference (LSD) posttest.

GB1–ks-vFLIP = target: T1, GB1–ks-vFLIP (Human herpesvirus 8 type P, UniProt F5HEZ4); experiment: biochemical; type: binding, Kaposi's sarcoma-associated herpesvirus
T1 construct: ks-vFLIP (residues 1 to 188) was PCR cloned into the EcoRI and XhoI sites of GB1-pBR22b; 6His (C); made in house; host or cells: E. coli BL21(DE3)
Procedure: We next sought to assess the affinity of spIKKγ for vFLIP using isothermal calorimetry (ITC).
Isothermal calorimetry (ITC) experiments were performed using a Microcal VP-ITC micocalorimeter (MicroCal). For all binding reactions, syringe concentrations varied between ∼85 and 100 μM for IKKγ(150–272) and cell concentrations between ∼8 and 10 μM for GB1-vFLIP. Titrations consisted of an initial 2-μl injection, followed by 20 10-μl injections with stirring at 300 rpm. In competition assays, GB1–ks-vFLIP was first incubated with 20 μM spIKKγ and DMSO to 4% prior to loading into the cell and titration with IKKγ(150–272). All ITC binding experiments were performed in deionized water at 25°C owing to the buffer constraints of spIKKγ, GB1–ks-vFLIP, and IKKγ(150–272), where GB1–ks-vFLIP and IKKγ(150–272) were buffer matched by overnight dialysis, followed by the addition of 4% DMSO to each. […] Following collection, all data were analyzed using ORIGIN 70 software and fitted to a one-site binding model with each experiment performed at least in triplicate.

Jurkat cells = experiment: Cell viability assay (trypan blue), Jurkat cells; type: cell-based, human; details: for rescue of Jurkat cell survival by WT ks-vFLIP: FADD/ATG3 siRNA Jurkat cells overexpressing WT ks-vFLIP; for protection by ks-vFLIP, IKKγ-null cells: Jurkat cells null for IKKγ; for protection by A57L ks-vFLIP mutant against induced apoptosis: Jurkat cells with A57L ks-vFLIP; for Jurkat cell survival, FADD or ATG3 silenced or IKKγ null: no ks-vFLIP rescue, FADD siRNA, ATG3 siRNA
From the text: Although it has been established that dysregulated activation of the canonical NF-κB pathway by ks-vFLIP renders mouse embryonic fibroblasts resistant to apoptosis induced by TNF-α ([12]), we sought to ascertain whether ks-vFLIP expression also prevents cell death induced by ETO. Unlike TNF-α, which instigates death receptor signaling, ETO, a topoisomerase II inhibitor, initiates cell death through the generation of DNA double-strand breaks ([20]). […] We next investigated the potential involvement of death-inducing signaling complex (DISC) formation and autophagy since ks-vFLIP has been cited (somewhat controversially) to interact with procaspase 8, an […] whose activation requires the adaptor protein FADD ([21]), and to physically associate with the ubiquitin-like conjugating enzyme ATG3, which is essential for the formation of autophagosomes ([11]). Viability assays were therefore conducted using Jurkat cells in which FADD and ATG3 were silenced (using small interfering RNA [siRNA]) together with those null for IKKγ in the presence of both ETO and TNF-α (Fig. 1C and D).
Lentiviral vectors expressing GST or GST fusion peptides together with green fluorescent protein (GFP), CherryFP, WT vFLIP, or vFLIPA57L (a mutant which fails to bind IKKγ) were produced as previously described ([19]). […] In each case, lentiviral vector doses were used to ensure that over 95% of cells were positive for the relevant fluorescent protein. The anti-FADD antibody used for immunoblots was purchased from BD Biosciences, and those for anti-ATG3 and anti-glyceraldehyde-3-phosphate dehydrogenase (anti-GAPDH) were from Cell Signaling Technology. Jurkat cells and their IKKγ-null derivatives were obtained from Alain Israel, Institute Pasteur, and verified as human T cells by surface CD3 staining.
as §2

DG75 cells = experiment: Cell viability assay (trypan blue), DG75 cells; type: cell-based, human
Procedure: as §1
BC3, BCP-1, and DG75 cells were purchased for this study from the American Type Culture Collection (ATCC). They were verified as human B cell lines by surface staining for human Ig.
as §2

Row | Compound | solubility in aqueous solutions | IC50 (BC3 cells; spIKKγ alone, after 24 h, trypan blue, triplicate independent experiments, read-out: 50% inhibitory concentration (IC50), BC3 viability) | Ki (GB1–ks-vFLIP) | rescue of Jurkat cell survival by WT ks-vFLIP (Jurkat cells) | protection by ks-vFLIP, IKKγ-null cells (Jurkat cells) | protection by A57L ks-vFLIP mutant against induced apoptosis (Jurkat cells) | Jurkat cell survival, trend versus ETO (Jurkat cells; TNF-α, various concentrations, with and without ks-vFLIP) | Jurkat cell survival, FADD or ATG3 silenced or IKKγ null (Jurkat cells) | DG75 viability, control experiment (DG75 cells; Fig. 5E, spIKKγ or TNF-α alone or in combination, 24 and 48 h) | BC3 cell death, agent individually (BC3 cells) | rescue by WT ks-vFLIP, ATG3 siRNA (Jurkat cells; ATG3 siRNA Jurkat cells, ETO) | Jurkat cell survival, null for ks-vFLIP (Jurkat cells; ETO 50 μM, cells null for ks-vFLIP) | Jurkat cell survival with ks-vFLIP (Jurkat cells; ETO 50 μM, ks-vFLIP-expressing cells) | DG75 viability at 48 h, ETO (or ETO plus spIKKγ) (DG75 cells; Fig. 5E, 48 h) | DG75 sensitivity to ETO (DG75 cells; after 48 h)
1 | CC[C@H](C)[C@H](NC(=O)[C@H](Cc1c[nH]cn1)NC(=O)[C@H](CC(N)=O)NC(=O)[C@H](CC(=O)O)NC(=O)[C@H](Cc1ccc(O)cc1)NC(=O)[C@]1(C)CCCC=CCCC[C@](C)(NC(=O)[C@H](Cc2c[nH]cn2)NC(=O)[C@H](Cc2ccc(O)cc2)NC(=O)[C@H](C)NC(=O)[C@@H](NC(=O)[C@H](CCC(N)=O)NC(=O)[C@H](CC(C)C)NC(C)=O)C(C)C)C(=O)N[C@@H](CC(C)C)C(=O)N[C@@H](Cc2ccccc2)C(=O)N[C@@H](CCC(N)=O)C(=O)N1)C(=O)N[C@@H](CCCCN)C(=O)N[C@@H](CO)C(=O)N[C@@H](CO)C(=O)N[C@@H](CS)C(N)=O [spIKKγ] (Ac-LQVAYH[S5]LFQ[S5]YDNHIKSSC-NH2; staple 7-11) | poor solubility | ~75 µM | 0.257 µM |  |  |  |  |  |  |  |  |  |  |  | 
2 | TNF-α |  |  |  | could to a large extent be rescued | completely refractory to the protective effects of ks-vFLIP | could not protect cells against apoptosis | closely mirror the trend | severely compromised in all three scenarios | failed to have a negative impact | negligible effects individually |  |  |  |  | 
3 | COc1cc([C@@H]2c3cc4c(cc3[C@@H](O[C@@H]3O[C@@H]5CO[C@@H](C)O[C@H]5[C@H](O)[C@H]3O)[C@H]3COC(=O)[C@H]23)OCO4)cc(OC)c1O [ETO, etoposide] |  |  |  | could to a large extent be rescued | completely refractory to the protective effects of ks-vFLIP | could not protect cells against apoptosis |  | severely compromised in all three scenarios |  | negligible effects individually | to a lesser degree | severely compromised | only moderately reduced | significant reduction in viability | Considerable sensitivity

Reference: publication PMC5686756, “IKKγ-Mimetic Peptides Block the Resistance to Apoptosis Associated with Kaposi's Sarcoma-Associated Herpesvirus Infection” (Journal of Virology, 2017)
